# Measured values: patent US4160829A, “Antibacterial 1,2,4-oxadiazolylacetamido cephalosporins” (Gist-Brocades N.V., priority 1972, dated 1979)
# Where two headings read alike, the source gives them in different places.
# Columns and labels:
# Staph.aureus A 355 [1] = test: agar serial dilution test; conditions: Staphylococcus aureus, A355, 24 h
# Shig.equir. T 3 = test: agar serial dilution test; format: cell-based; conditions: 37° C., read-out: minimal inhibitory concentration (MIC)
# Prot.mirab. H 3 = test: agar serial dilution test; format: cell-based, Proteus mirabilis; conditions: Proteus mirabilis
# Pseud.aerug. 2396 = test: agar serial dilution test; format: cell-based; conditions: read-out: minimal inhibitory concentration (MIC)
# Dipl.pneum. L 54 = test: agar serial dilution test; format: cell-based, Diplococcus pneumoniae; conditions: Streptococcus pneumoniae, read-out: minimal inhibitory concentration (MIC)
# Prot.morg. 2241 = test: agar serial dilution test; format: cell-based; conditions: read-out: minimal inhibitory concentration (MIC)
# Prot.mirab. L 93 = test: agar serial dilution test; format: cell-based, Proteus mirabilis; conditions: Proteus mirabilis
# Haem.infl. A 1030 = test: micro serial dilution test; format: cell-based; conditions: read-out: minimal inhibitory concentration (MIC)
# Staph.aureus A 2001 [2] = test: micro serial dilution test; format: cell-based, Staphylococcus aureus; conditions: Staphylococcus aureus, micro serial dilution (in brackets), about 18 hours, 30° C. or 37° C., read-out: minimal inhibitory concentration (MIC)
# Strep.haem. A 266 = test: agar serial dilution test; format: cell-based, Streptococcus haemolyticus; conditions: Streptococcus, read-out: minimal inhibitory concentration (MIC)
# Kleb.pneum. A 809 = test: agar serial dilution test; format: cell-based, Klebsiella pneumoniae; conditions: Klebsiella pneumoniae, read-out: minimal inhibitory concentration (MIC)
# Salm.dubl. P 43 = test: agar serial dilution test; format: cell-based, Salmonella dublin; conditions: Salmonella enterica, read-out: minimal inhibitory concentration (MIC)
# Pseud.aerug. H 10 = test: agar serial dilution test; format: cell-based; conditions: read-out: minimal inhibitory concentration (MIC)
# Bruc.melit. A 488 = test: microbe, parasite or virus in culture; format: cell-based; conditions: Brucella melitensis, 24 h, read-out: minimal inhibitory concentration (MIC)
# Staph.aureus A 2000 [3] = test: agar serial dilution test; format: cell-based, Staphylococcus aureus; conditions: Staphylococcus aureus, read-out: minimal inhibitory concentration (MIC)
# Strep. faec. L 80 = test: agar serial dilution test; format: cell-based, Streptococcus faecalis; conditions: Enterococcus faecalis, read-out: minimal inhibitory concentration (MIC)
# Staph.aureus A 355 [4] = test: micro serial dilution test; format: cell-based, Staphylococcus aureus; conditions: Staphylococcus aureus, A355; micro serial dilution (in brackets), about 18 hours, 30° C. or 37° C.; penicillinase-producing strain; read-out: minimal inhibitory concentration (MIC)
# Excerpt: Two drops of a stock solution of the test compound (antibiotic) in a known concentration were brought into the first hole of a test plate with 9 numbered holes with a sterile Pasteur pipette. After rinsing this pipette three times with a physiological NaCl-solution, two drops of a stock solution of the test organism in a culture medium were brought in all the holes except for hole 8. In the first hole, the solution of the tested compound had been half diluted, then by stirring the liquid in the first hole and adding two drops of this mixture to the second hole and so on until hole 8, dilutions of the test compound solution were obtained in geometrical progression. The hole 9 contained no antibiotic and served for checking the growth of the testogranism in a blank medium. The test plate was incubated at 30° C. or 37° C. for about 18 hours.
# ^1 Penicillinase-producing strain
# Past.multo. A 723 = test: agar serial dilution test; format: cell-based, Pasteurella multocida; conditions: Pasteurella multocida, read-out: minimal inhibitory concentration (MIC)
# Esch.coli U 20 = test: agar serial dilution test; format: cell-based, Escherichia coli; conditions: Escherichia coli
# Bac.Subt.ATCC 6633 = test: agar serial dilution test; format: cell-based, Bacillus subtilis; conditions: Bacillus subtilis, read-out: minimal inhibitory concentration (MIC)
# Staph.aureus A 321 = test: agar serial dilution test; format: cell-based, Staphylococcus aureus; conditions: Staphylococcus aureus, read-out: minimal inhibitory concentration (MIC)
# Prot.rettg. A 821 = test: agar serial dilution test; format: cell-based, Proteus rettgeri; conditions: Providencia rettgeri, read-out: minimal inhibitory concentration (MIC)
# [5] = test system: Pseud.aerug. Wyeth A 1058; test: agar serial dilution test; format: cell-based; conditions: read-out: minimal inhibitory concentration (MIC)
# Prot.mirab. A 1200 = test: agar serial dilution test; format: cell-based, Proteus mirabilis; conditions: Proteus mirabilis, 24 h, agar serial dilution, 24 hours, 37° C.; read-out: minimal inhibitory concentration (MIC)
# Staph.aureus A 2000 [6] = test: micro serial dilution test; format: cell-based, Staphylococcus aureus; conditions: Staphylococcus aureus, A2000, 18 h, micro serial dilution (in brackets), about 18 hours, 30° C. or 37° C.; read-out: minimal inhibitory concentration (MIC)
# Salm.typh. R 127 = test: agar serial dilution test; format: cell-based; conditions: 24 h, 37° C., read-out: minimal inhibitory concentration (MIC)
# Staph.aureus A 2001 [7] = test: agar serial dilution test; format: cell-based, Staphylococcus aureus; conditions: Staphylococcus aureus, A2001, 24 h, agar serial dilution, 24 hours, 37° C.; read-out: minimal inhibitory concentration (MIC)
# [8] = read-out: minimal inhibitory concentration (MIC)
# [9] = 24 h, agar serial dilution, 24 hours, 37° C., read-out: minimal inhibitory concentration (MIC)
# [10] = agar serial dilution, 24 hours, 37° C.
# [11] = read-out: minimal inhibitory concentration (MIC), agar serial dilution, 24 hours, 37° C., penicillinase-producing strain
# [12] = agar serial dilution, 24 hours, 37° C., read-out: minimal inhibitory concentration (MIC)
# [13] = 24 h, agar serial dilution, 24 hours, 37° C.
# [14] = 18 h, micro serial dilution (in brackets), about 18 hours, 30° C. or 37° C.
# [15] = A2000, 24 h, agar serial dilution, 24 hours, 37° C.
# [16] = U20, agar serial dilution, 24 hours, 37° C., read-out: minimal inhibitory concentration (MIC)
# [17] = ATCC6633, 24 h, agar serial dilution, 24 hours, 37° C.
# [18] = A321, 24 h, agar serial dilution, 24 hours, 37° C.
# [19] = 24 h, read-out: minimal inhibitory concentration (MIC), agar serial dilution, 24 hours, 37° C.
SMILES,MIC (Staph.aureus A 355 [1]; [8]),MIC (Shig.equir. T 3; 24 h),MIC (Pseud.aerug. 2396; [10]),MIC (Dipl.pneum. L 54; [10]),MIC (Strep.haem. A 266; [10]),MIC (Kleb.pneum. A 809; [10]),MIC (Salm.dubl. P 43; [10]),MIC (Pseud.aerug. H 10; [10]),MIC (Bruc.melit. A 488),MIC (Strep. faec. L 80; [10]),MIC (Staph.aureus A 355 [4]),MIC (Past.multo. A 723; [10]),"MIC [5, 10]",MIC (Staph.aureus A 355 [1]; [11]),MIC (Prot.mirab. H 3; [12]),MIC (Prot.morg. 2241; [13]),MIC (Prot.mirab. L 93; [12]),MIC (Haem.infl. A 1030; [14]),"MIC (Staph.aureus A 2001 [2]; A2001, 18 h)",MIC (Staph.aureus A 2000 [3]; [15]),further results
"CC(=O)OCC1=C(C(=O)O)N2C(=O)[C@@H](NC(=O)Cc3ccccc3)[C@H]2SC1 [Cephalosporin G, reference compound]",1.5 µg/mL,25 µg/mL,> 100 µg/mL,0.06 µg/mL,0.03 µg/mL,1 µg/mL,6 µg/mL,> 100 µg/mL,2 µg/mL,25 µg/mL,1.8 µg/mL,1 µg/mL,> 100 µg/mL,–,–,–,–,–,–,–,"MIC (Prot.mirab. H 3; [9]): 25 µg/mL; MIC (Prot.morg. 2241; [10]): > 100 µg/mL; MIC (Prot.mirab. L 93; [9]): 2 µg/mL; MIC (Haem.infl. A 1030; micro serial dilution (in brackets), about 18 hours, 30° C. or 37° C.): 125 µg/mL; MIC (Staph.aureus A 2001 [2]; A2001): 0.9 µg/mL; MIC (Staph.aureus A 2000 [3]; A2000, agar serial dilution, 24 hours, 37° C.): 1.5 µg/mL; MIC (Esch.coli U 20; U20, 24 h, agar serial dilution, 24 hours, 37° C., read-out: minimal inhibitory concentration (MIC)): 50 µg/mL; MIC (Bac.Subt.ATCC 6633; ATCC6633, agar serial dilution, 24 hours, 37° C.): 0.09 µg/mL; MIC (Staph.aureus A 321; A321, agar serial dilution, 24 hours, 37° C.): 1.5 µg/mL; MIC (Prot.rettg. A 821; [10]): 25 µg/mL"
"CC(=O)OCC1=C(C(=O)O)N2C(=O)[C@@H](NC(=O)Cc3nc(-c4c(C)cc(C)cc4C)no3)[C@H]2SC1 [Example 9, 7-{[3-(2,4,6-trimethylphenyl)-1,2,4-oxadiazol-5-yl]-acetamido}-cephalosporanic acid]",–,> 100 µg/mL,> 100 µg/mL,0.25 µg/mL,0.03 µg/mL,50 µg/mL,> 100 µg/mL,> 100 µg/mL,100 µg/mL,6 µg/mL,0.15 µg/mL,50 µg/mL,> 100 µg/mL,1 µg/mL,> 100 µg/mL,> 100 µg/mL,> 100 µg/mL,125 µg/mL,0.11 µg/mL,1 µg/mL,MIC (Esch.coli U 20; [16]): > 100 µg/mL; MIC (Bac.Subt.ATCC 6633; [17]): 0.06 µg/mL; MIC (Staph.aureus A 321; [18]): 0.12 µg/mL; MIC (Prot.rettg. A 821; [13]): > 100 µg/mL; MIC (Prot.mirab. A 1200): > 100 µg/mL
"Cc1noc(CC(=O)N[C@@H]2C(=O)N3[C@@H]2SC(C)(C)[C@@H]3C(=O)O)n1 [Example 11B, sodium 6-[(3-methyl-1,2,4-oxadiazol-5-yl)-acetamido]-penicillanate H2 O]",–,3 µg/mL,> 100 µg/mL,0.25 µg/mL,0.03 µg/mL,> 100 µg/mL,–,> 100 µg/mL,–,6 µg/mL,> 12 µg/mL,1 µg/mL,> 100 µg/mL,50 µg/mL,50 µg/mL,> 100 µg/mL,3 µg/mL,125 µg/mL,2.5 µg/mL,50 µg/mL,MIC (Staph.aureus A 2000 [6]): > 12 µg/mL; MIC (Salm.typh. R 127): 12.5 µg/mL; MIC (Salm.dubl. P 43; 24 h): 12.5 µg/mL; MIC (Esch.coli U 20; [16]): 50 µg/mL; MIC (Bac.Subt.ATCC 6633; [17]): 0.03 µg/mL; MIC (Staph.aureus A 2001 [7]): 3 µg/mL; MIC (Staph.aureus A 321; [18]): 0.12 µg/mL; MIC (Prot.rettg. A 821; [13]): 50 µg/mL; MIC (Prot.mirab. A 1200): > 100 µg/mL
"CC1=C(C(=O)O)N2C(=O)[C@@H](NC(=O)Cc3ccccc3)[C@H]2SC1 [benzyldesacetoxy ceph., reference compound]",25 µg/mL,–,–,–,–,–,–,–,100 µg/mL,–,–,–,–,–,–,–,–,–,–,–,"MIC (Shig.equir. T 3; 24 hours): 100 µg/mL; MIC (Prot.mirab. H 3; [19]): > 100 µg/mL; MIC (Pseud.aerug. 2396; 24 h): > 100 µg/mL; MIC (Dipl.pneum. L 54; 24 h): 3 µg/mL; MIC (Prot.morg. 2241; 24 h): > 100 µg/mL; MIC (Prot.mirab. L 93; [19]): 50 µg/mL; MIC (Haem.infl. A 1030; 18 h): > 125 µg/mL; MIC (Strep.haem. A 266; 24 h): 1 µg/mL; MIC (Kleb.pneum. A 809; 24 h): 100 µg/mL; MIC (Salm.dubl. P 43; 24 h): > 100 µg/mL; MIC (Pseud.aerug. H 10; 24 h): > 100 µg/mL; MIC (Staph.aureus A 2000 [3]; A2000, 24 h): 12.5 µg/mL; MIC (Strep. faec. L 80; 24 h): > 100 µg/mL; MIC (Past.multo. A 723; 24 h): 25 µg/mL; MIC (Esch.coli U 20; U20, 24 h, read-out: minimal inhibitory concentration (MIC), agar serial dilution, 24 hours, 37° C.): > 100 µg/mL; MIC (Bac.Subt.ATCC 6633; ATCC6633, 24 h): 0.5 µg/mL; MIC (Staph.aureus A 321; A321, 24 h): 1 µg/mL; MIC (Prot.rettg. A 821; 24 h): > 100 µg/mL; MIC ([5]; 24 h): > 100 µg/mL"
